Data taken from the METLIN SMRT retention time set (Domingo-Almenara et al. 2019).

Experiment: gradient 5% acetonitrile 3 min, to 50% in 2 min, to 85% in 15 min, held 3 min, 100 µL/min
Conditions: column: Zorbax Extend-C18 2.1 x 50 mm; eluents: water / acetonitrile, 0.1% formic acid
How it was run: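 Pure standards were analyzed in mixtures of ~100 molecules using HPLC coupled to a quadrupole time-of-flight mass spectrometer, in both positive and negative ionization mode. Separation used a Zorbax Extend-C18 column (2.1 × 50 mm, 1.8 μm) at 100 μL/min, with water and acetonitrile each containing 0.1% formic acid. Dead and dwell volumes were 40 μL and 900 μL, and data were collected over 3 months. Retention time was read from computationally picked adduct peaks, each inspected manually.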

SMILES | RP-LC retention time [s]
Cc1cc2nc(C)c(=O)n(CC(=O)NCCCN(C)C3CCCCC3)c2cc1C | 624
Cc1nnc(N2CCCC(C(=O)NCCc3ccc(Cl)cc3)C2)c2nn(-c3ccccc3)c(C)c12 (configuration not stated) | 784
O=C(c1ccc(Br)o1)N1CCC(c2nnc(-c3ccco3)s2)CC1 | 765
O=C(CC1COc2ccccc2NC1=O)NCCc1cccs1 (configuration not stated) | 689
Cc1cc(C)c2c(N3CCOCC3)nc(C(=O)NCCN3CCCCCC3)nc2n1 | 555
CCOC(=O)N1CCc2c(sc(NC(=O)c3cc(C)on3)c2C(=O)OC)C1 | 949
CCCn1c(=O)c(C)nc2cc(-c3noc(C4CC(=O)N(C5CCCC5)C4)n3)ccc21 (configuration not stated) | 878
C[C@]12CC[C@H](O)CC1=CCC1C2CC[C@]2(C)C(n3cnc4ccccc43)=CCC12 (some centres not stated) | 948
CCCNc1cc(N2CCC(CCC(=O)NCCc3ccccn3)CC2)ncn1 | 557
CN1CCN(c2ncncc2N2CCC(C(=O)N3CCN(c4ccccc4)CC3)CC2)CC1 | 570
COC(=O)c1nnn(-c2cc(Cl)ccc2C)c1C(=O)OC | 933
CC1=C(c2ccc(C)c(C)c2)S(=O)(=O)N=C1N1CCC(C(=O)NCCN2CCCC2)CC1 | 661
COCC(C)(O)CNC(=O)C(=O)Nc1ccccc1C#N (configuration not stated) | 629
COCCn1nnnc1C1CC2(CCOCC2)C(=O)N1CCc1ccc(Cl)cc1 (configuration not stated) | 880
CCOc1ccc(-n2nnnc2CN2CCN(C(=O)c3cccs3)CC2)cc1 | 746
CNC(=O)c1ccc(-n2cccc2)nc1 | 645
O=C(C1CCCN(c2nc3ccccc3n3cccc23)C1)N1CCN(c2ccccc2)CC1 (configuration not stated) | 793
Cc1cc2nn(CC(=O)N3CCCc4ccccc43)c(=O)n2c(Nc2ccc(F)cc2)n1 | 1060
Cc1ccc(OCC(=O)Nc2nnc(SCc3nnc(-c4ccccc4)o3)s2)c(C)c1 | 998

SMILES | RP-LC retention time [s]
Cn1c(=O)c(C(=O)N2CCN(c3ccccn3)CC2)nn(-c2ccc(F)cc2)c1=O | 622
CCOc1ccc(S(=O)(=O)N2CCCC(C(=O)NCCO)C2)cc1 (configuration not stated) | 662
O=C1CCCc2cc(S(=O)(=O)NCC3CCN(Cc4ccccc4F)CC3)ccc2N1 | 596
OCCN1CCN(CC(O)COc2ccc3c(c2)CCC3)CC1 (configuration not stated) | 553
CCn1cc(C)c(C(=O)O)c1CC(=O)NCCC(C)C | 749
COCCN1C(=O)c2ccccc2C(C(=O)NCc2ccc(F)cc2)C12CCCC2 (configuration not stated) | 879
O=C(CN1CCN(C(=O)Nc2ccc(Cl)cc2)CC1=O)NC1CCCCC1 | 724
Cc1ccc(Sc2nccnc2N2CCC(C(=O)NCc3ccc(F)cc3F)CC2)cc1 | 1070
Cn1cc(C(=O)NCc2ccc(F)c(Cl)c2)c(S(=O)(=O)N2CCCCC2)n1 | 876
OC(CN1CCN(c2ccccc2Cl)CC1)c1ccc2c(c1)OCO2 (configuration not stated) | 670
Cc1ccc(-n2nc(C(=O)Nc3ccc4c(c3)OCCO4)c3ncn(C)c(=O)c32)cc1 | 887
COc1ccc(-c2csc3c(=O)n(Cc4ccccc4)cnc23)cc1OC | 948
COc1ccc(S(=O)(=O)Nc2cc(-c3cn4ccccc4n3)ccc2C)cc1 | 797
CC(=O)Nc1ccc(Nc2nc3ccccc3nc2NS(=O)(=O)c2cccs2)cc1 | 794
CCn1c(C2CCN(S(=O)(=O)c3ccc4c(c3)CCCC4)C2)nc2ccncc21 (configuration not stated) | 585
CCC(C)NC(=O)c1cnn(-c2cc(-c3nc(C(C)(C)C)no3)ccn2)c1C (configuration not stated) | 711
O=C(NCc1ccccc1C(F)(F)F)c1ccnc(N2CCCCC2)n1 | 1190
Cc1nnc(-c2cn(CC(=O)Nc3ccc(Br)cc3)c3ccccc23)o1 | 888
